The record followed here is patent US9211340B2, “Means and methods of enhancing delivery to biological systems” (priority 2006, dated 2015).

One assay has as its system SCF-reporter construct. Put plainly: ER-to-Golgi transport of SCF-reporter construct (Golgi-staining of cells). In kind it is cell-based. The following applies: 2-hours pretreatment and 1-hour ER-to Golgi transport; FIG. 4.
Another assay deals with SCF. Put plainly: SCF transport to the cell surface (SCF staining). In kind it is cell-based. The following applies: 100 μM peptide, 16 hours; FIG. 5. On the procedure: FIG. 5: Arginine-ester peptide delivery and inhibition of SCF transport to the cell surface (16 hours). Left: No peptide; normal SCF membrane staining.
Cos-7 cells were plated overnight on glass coverslips in 10% serum containing DMEM. For the analysis, we suspended the peptide at 1 mM in PBS (phosphate buffered saline) which was diluted to final concentration in full medium. We washed the cells after 15 or 30 minutes and washed once with PBS and fixed with paraformaldehyed (4%) for 10 minutes and took images in PBS.

No end group written: not given here.

For the substance “Arginine-ester peptide: 20-mer SCF peptide (SEQ ID NO: 1) with glutamate carboxylates esterified with a guanidinium alkanol (NEEDNEISMLQEKEREFQEV; also: glutamate carboxylates esterified with a guanidinium alkanol (places and alkanol not given here); listed as Homo sapiens)”, in the assay on SCF-reporter construct, the “% of cells exhibiting Golgi-staining of reporter construct (export of SCF-reporter construct)” value was “block export of a SCF-reporter construct”. The “inhibition of SCF transport to the cell surface (SCF staining)” value with SCF was “shift to intracellular SCF staining”.
